Results from ChEMBL document CHEMBL1201862, “PubChem BioAssay data set” (2004).
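Test compounds were applied to cells in 96-well plates for 48 hours at 5 doses. GI50 is the concentration that inhibits growth by half.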 Active and inactive are the calls of the source. No stated cut-off is given here; in the data, active = GI50 up to about 1.1 µM and inactive = higher.

Legend:
Assay in all cases: inhibition of tumour cell growth, NCI panel, 48 h
KM12 = test system: KM12
HL-60 = test system: HL-60
MDA-MB-231 = test system: MDA-MB-231
SK-OV-3 = test system: SK-OV-3
UO-31 = test system: UO-31
UACC-62 = test system: UACC-62
Malme-3M = test system: Malme-3M
RPMI-8226 = test system: RPMI-8226
HT-29 = test system: HT-29
DU-145 = test system: DU-145
SF-295 = test system: SF-295
K562 = test system: K562
NCI-H460 = test system: NCI-H460
RXF 393 = test system: RXF 393
NCI-H23 = test system: NCI-H23
HCT-15 = test system: HCT-15
OVCAR-8 = test system: OVCAR-8
BT-549 = test system: BT-549
MOLT-4 = test system: MOLT-4
HCT-116 = test system: HCT-116

Row | SMILES | GI50 (KM12) | GI50 (HL-60) | GI50 (MDA-MB-231) | GI50 (SK-OV-3) | GI50 (UO-31) | GI50 (UACC-62) | GI50 (Malme-3M) | GI50 (RPMI-8226) | GI50 (HT-29) | GI50 (DU-145) | GI50 (SF-295) | GI50 (K562) | GI50 (NCI-H460) | GI50 (RXF 393) | GI50 (NCI-H23) | GI50 (HCT-15) [µM] | GI50 (OVCAR-8) | GI50 (BT-549) | GI50 (MOLT-4) | GI50 (HCT-116)
1 | O=C1OC(c2ccc(O)c(-c3ccccc3)c2)(c2ccc(O)c(-c3ccccc3)c2)c2c(Cl)c(Cl)c(Cl)c(Cl)c21 | > 100 µM (inactive) | 0.177 µM (active) | > 100 µM (inactive) | > 100 µM (inactive) | > 100 µM (inactive) | > 100 µM (inactive) | > 100 µM (inactive) | > 100 µM (inactive) | > 100 µM (inactive) | > 100 µM (inactive) | > 100 µM (inactive) | > 100 µM (inactive) | > 100 µM (inactive) | > 100 µM (inactive) | > 100 µM (inactive) | > 100 | > 100 µM (inactive) | > 100 µM (inactive) | > 100 µM (inactive) | > 100 µM (inactive)
2 | OCCN1CCN(c2nc(N3CCCC3)c3nc(Cl)c(NCc4ccccc4)nc3n2)CC1 | 4.97 µM (inactive) | 3.81 µM (inactive) | 9.82 µM (inactive) | 13.7 µM (inactive) | 4.89 µM (inactive) | 4.65 µM (inactive) | 6.56 µM (inactive) | 2.83 µM (inactive) | 3.18 µM (inactive) | 8.15 µM (inactive) | 5.53 µM (inactive) | 2.54 µM (inactive) | 5.58 µM (inactive) | 1.32 µM (inactive) | 14.5 µM (inactive) | 2.84 | 8.77 µM (inactive) | 6.84 µM (inactive) | 3.19 µM (inactive) | 5.6 µM (inactive)
3 | COC(=O)[C@]1(C)CCC[C@@]2(C)[C@@H]3C[C@@H]4[C@H]5C[C@@]3(CC[C@@H]21)C[C@@]45C |  | 2.08 µM (inactive) | 15.6 µM (inactive) | 14.7 µM (inactive) | 16 µM (inactive) | 14.8 µM (inactive) | 22.2 µM (inactive) | 10.3 µM (inactive) | 14.5 µM (inactive) | 25.8 µM (inactive) | 15.2 µM (inactive) | 0.643 µM (active) |  | 17.1 µM (inactive) | 14.6 µM (inactive) | 16.2 | 16.4 µM (inactive) | 16.5 µM (inactive) | 14.5 µM (inactive) | 20 µM (inactive)
4 | NNC(=O)CNc1cccc(Br)c1 | > 100 µM (inactive) | 74.8 µM (inactive) | > 100 µM (inactive) | > 100 µM (inactive) | > 100 µM (inactive) | > 100 µM (inactive) | > 100 µM (inactive) | > 100 µM (inactive) | > 100 µM (inactive) | > 100 µM (inactive) | > 100 µM (inactive) | > 100 µM (inactive) | > 100 µM (inactive) | > 100 µM (inactive) | > 100 µM (inactive) | > 100 | > 100 µM (inactive) | > 100 µM (inactive) |  | > 100 µM (inactive)
5 | CCNC(=O)C1CCCN1C(=O)C(CCCN=C(N)N)NC(=O)C(CC(C)C)NC(=O)C(Cc1c[nH]c2ccccc12)NC(=O)C(Cc1ccc(O)cc1)NC(=O)C(CO)NC(=O)C(Cc1c[nH]c2ccccc12)NC(=O)C(Cc1c[nH]cn1)NC(=O)C1CCC(=O)N1 (stereo unspecified) | > 100 µM (inactive) |  | > 100 µM (inactive) | > 100 µM (inactive) | > 100 µM (inactive) | > 100 µM (inactive) | > 100 µM (inactive) | > 100 µM (inactive) | > 100 µM (inactive) | > 100 µM (inactive) | > 100 µM (inactive) | > 100 µM (inactive) | > 100 µM (inactive) | > 100 µM (inactive) | > 100 µM (inactive) | > 100 | > 100 µM (inactive) | > 100 µM (inactive) | > 100 µM (inactive) | 
6 | CC1CCCN(CP(=O)(c2ccccc2)c2ccccc2)C1 (stereo unspecified) | > 100 µM (inactive) | 13.6 µM (inactive) | > 100 µM (inactive) | > 100 µM (inactive) | > 100 µM (inactive) | > 100 µM (inactive) | > 100 µM (inactive) | 43.5 µM (inactive) |  | > 100 µM (inactive) | > 100 µM (inactive) | > 100 µM (inactive) | 92.5 µM (inactive) | > 100 µM (inactive) | > 100 µM (inactive) | > 100 | > 100 µM (inactive) | > 100 µM (inactive) |  | 93.8 µM (inactive)
7 | CN(CO)c1nc(N(C)CO)nc(N(C)CO)n1 [TRIMELAMOL] | 15.1 µM (inactive) | 4.75 µM (inactive) | 21.5 µM (inactive) | 21.9 µM (inactive) | 19 µM (inactive) | 13.3 µM (inactive) | 12.8 µM (inactive) | 3.98 µM (inactive) | 23 µM (inactive) | 25.7 µM (inactive) | 26.8 µM (inactive) | 18.7 µM (inactive) |  | 11.6 µM (inactive) | 19.3 µM (inactive) | 9.89 | 14.5 µM (inactive) | 20.9 µM (inactive) | 27.2 µM (inactive) | 
